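Dose response: 5 concentrations. Exposure: 48 h. Format: 96-well plates. Endpoint: linear interpolation; highest concentration if not reached. GI50: concentration for 50% inhibition of growth.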 Active and inactive are the calls of the source. No stated cut-off is given here; in the data, active = GI50 up to about 1.1 µM and inactive = higher.
Experiments:
Assay in all cases: inhibition of tumour cell growth, NCI panel, 48 h
ACHN = test system: ACHN
PC-3 = test system: PC-3
HCC 2998 = test system: HCC 2998
MDA-MB-231 = test system: MDA-MB-231
OVCAR-4 = test system: OVCAR-4
HCT-116 = test system: HCT-116
RPMI-8226 = test system: RPMI-8226
IGROV-1 = test system: IGROV-1
CAKI-1 = test system: CAKI-1
OVCAR-5 = test system: OVCAR-5
OVCAR-3 = test system: OVCAR-3
SNB-19 = test system: SNB-19
SK-MEL-2 = test system: SK-MEL-2
KM12 = test system: KM12
NCI/ADR-RES = test system: NCI/ADR-RES
SNB-75 = test system: SNB-75
U-251 = test system: U-251
SN12C = test system: SN12C
NCI-H522 = test system: NCI-H522
A498 = test system: A498

Measured: GI50

COP(=O)(OC)C(C)(C)NC(=O)NC(F)(F)F
inactive: ACHN > 100 µM | PC-3 > 100 µM | HCC 2998 > 100 µM | MDA-MB-231 > 100 µM | OVCAR-4 > 100 µM | HCT-116 > 100 µM | RPMI-8226 > 100 µM | IGROV-1 > 100 µM | OVCAR-5 > 100 µM | OVCAR-3 > 100 µM | SNB-19 70.1 µM | SK-MEL-2 > 100 µM | KM12 > 100 µM | NCI/ADR-RES > 100 µM | SNB-75 > 100 µM | U-251 > 100 µM | SN12C > 100 µM
active: CAKI-1 0.01 µM

CCNC1=C(NC(=O)c2ccccc2)C(=O)c2ccccc2C1=O
inactive: PC-3 18.2 µM | HCC 2998 33 µM | MDA-MB-231 6.12 µM | OVCAR-4 81.3 µM | HCT-116 25.8 µM | RPMI-8226 > 100 µM | IGROV-1 46.9 µM | OVCAR-5 > 100 µM | OVCAR-3 25.1 µM | SNB-19 83.2 µM | NCI-H522 11.2 µM | KM12 30.4 µM | NCI/ADR-RES 16.7 µM | U-251 33 µM | SN12C 42.8 µM

CCOC(=O)O/N=C1/C(=C2/C(=O)Nc3ccccc32)Nc2ccccc21
active: KM12 0.192 µM
inactive: ACHN 4.41 µM | A498 1.47 µM | HCC 2998 2.73 µM | MDA-MB-231 11.6 µM | OVCAR-4 6.4 µM | HCT-116 3.03 µM | RPMI-8226 10.8 µM | IGROV-1 4.34 µM | CAKI-1 1.86 µM | OVCAR-5 16.5 µM | OVCAR-3 2.15 µM | SNB-19 18.7 µM | SK-MEL-2 2.29 µM | NCI-H522 8.53 µM | NCI/ADR-RES 4.83 µM | SNB-75 3.4 µM | U-251 9.14 µM | SN12C 4.41 µM

CC1=NC(=Cc2ccc([N+](=O)[O-])cc2)C(=O)N1n1c(-c2ccccc2)nc2ccccc2c1=O
inactive: PC-3 39.7 µM | HCC 2998 57.9 µM | MDA-MB-231 63.7 µM | HCT-116 32.1 µM | RPMI-8226 22.3 µM | IGROV-1 53.6 µM | CAKI-1 35.2 µM | SNB-19 55.2 µM | NCI-H522 32.1 µM | KM12 35.6 µM | SNB-75 15.7 µM | SN12C 52 µM

CC(=O)Nc1ccc(S(=O)(=O)N/N=C(\C)CN2C(=O)c3ccccc3C2=O)cc1
inactive: ACHN > 100 µM | A498 > 100 µM | HCC 2998 > 100 µM | OVCAR-4 > 100 µM | HCT-116 > 100 µM | RPMI-8226 > 100 µM | IGROV-1 > 100 µM | CAKI-1 > 100 µM | OVCAR-5 > 100 µM | OVCAR-3 > 100 µM | SNB-19 > 100 µM | SK-MEL-2 > 100 µM | NCI-H522 > 100 µM | KM12 > 100 µM | SNB-75 75.5 µM | U-251 > 100 µM | SN12C 55.2 µM

Cc1ccc(NC(=O)CCCC(=O)CC(=O)c2ccc(Br)cc2)cc1
inactive: ACHN > 100 µM | A498 > 100 µM | HCC 2998 > 100 µM | OVCAR-4 > 100 µM | HCT-116 > 100 µM | RPMI-8226 > 100 µM | IGROV-1 > 100 µM | CAKI-1 > 100 µM | OVCAR-5 > 100 µM | OVCAR-3 > 100 µM | SNB-19 > 100 µM | SK-MEL-2 > 100 µM | NCI-H522 > 100 µM | KM12 > 100 µM | SNB-75 34.4 µM | U-251 > 100 µM | SN12C > 100 µM

O=C1C=C(Nc2ccc(Cl)cc2Cl)c2ccccc2C1=O
inactive: ACHN 36.2 µM | A498 > 100 µM | HCC 2998 54.6 µM | OVCAR-4 87.9 µM | HCT-116 35 µM | RPMI-8226 46.5 µM | IGROV-1 50.9 µM | CAKI-1 > 100 µM | OVCAR-5 > 100 µM | OVCAR-3 28.4 µM | SNB-19 39.3 µM | SK-MEL-2 23.6 µM | NCI-H522 29.8 µM | KM12 66.5 µM | SNB-75 22.4 µM | U-251 29.4 µM | SN12C 57.1 µM

Cc1ccc(NC(=O)C(=O)Cc2cccc[n+]2[O-])cc1C
inactive: ACHN > 100 µM | A498 > 100 µM | HCC 2998 > 100 µM | OVCAR-4 > 100 µM | HCT-116 > 100 µM | RPMI-8226 > 100 µM | IGROV-1 > 100 µM | CAKI-1 > 100 µM | OVCAR-5 > 100 µM | OVCAR-3 > 100 µM | SNB-19 > 100 µM | SK-MEL-2 > 100 µM | NCI-H522 > 100 µM | KM12 > 100 µM | SNB-75 > 100 µM | U-251 > 100 µM | SN12C > 100 µM

Source: ChEMBL document CHEMBL1201862, “PubChem BioAssay data set” (2004)
